{
  "source": "PubChem BioAssay AID220",
  "about": "(DTP/NCI, 2004)",
  "tested_on": "CD8F1 mice, subcutaneous mammary adenocarcinoma, T/C%",
  "test": "NCI In Vivo Anticancer Drug Screen. Data for tumor model Mammary Adenocarcinoma CD8F1 (subcutaneous) in CD8F1",
  "conditions": "higher = larger tumour",
  "in_short": "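Antitumor activity is assessed in transplantable-tumor mice by comparing the treated group with a vehicle-treated control group. Survival or tumor size serves as the measure, reported as T divided by C.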",
  "key": {"[1]": {"conditions": "endpoint: median tumor weight (est.), dose: 12.5 mg/kg/injection, schedule: Q07DX005 (ip), vehicle: Klucel (hydroxypropylcellulose) (HPC)"}, "[2]": {"conditions": "endpoint: median tumor weight (est.), dose: 200.0 mg/kg/injection, schedule: Q07DX005 (ip), vehicle: Klucel (hydroxypropylcellulose) (HPC)"}, "[3]": {"conditions": "endpoint: median tumor weight (est.), dose: 400.0 mg/kg/injection, schedule: Q07DX005 (ip), vehicle: Klucel (hydroxypropylcellulose) (HPC)"}},
  "note": "Where “and” joins values, the source holds several entries; their conditions need not be identical. Equal values may be shown once. Inconclusive results are not listed.",
  "data": [
    {"smiles": "CC[C@](O)(C(=O)O)c1cc2n(c(=O)c1CO)Cc1cc3ccccc3nc1-2", "values": [
      {"measurement": "T/C", "setting": "endpoint: mean tumor weight (est.), dose: 20.0 mg/kg/injection, schedule: Q07DX004 (ip), vehicle: saline", "value": "70 % of control"},
      {"measurement": "T/C", "setting": "endpoint: mean tumor weight (est.), dose: 40.0 mg/kg/injection, schedule: Q07DX004 (ip), vehicle: saline", "value": "61 % of control"},
      {"measurement": "T/C", "setting": "endpoint: mean tumor weight (est.), dose: 60.0 mg/kg/injection, schedule: Q07DX004 (ip), vehicle: saline", "value": "48 % of control"},
      {"measurement": "T/C", "setting": "endpoint: mean tumor weight, dose: 2.5 mg/kg/injection, schedule: Q01DX009 (ip), vehicle: saline", "value": "55 % of control"},
      {"measurement": "T/C", "setting": "endpoint: mean tumor weight, dose: 10.0 mg/kg/injection, schedule: Q07DX006 (ip), vehicle: saline", "value": "13 % of control"},
      {"measurement": "T/C", "setting": "endpoint: mean tumor weight, dose: 20.0 mg/kg/injection, schedule: Q07DX006 (ip), vehicle: saline", "value": "36 % of control and 42 % of control"},
      {"measurement": "T/C", "setting": "endpoint: mean tumor weight, dose: 20.0 mg/kg/injection, schedule: Q07DX007 (ip), vehicle: saline", "value": "102 % of control"},
      {"measurement": "T/C", "setting": "endpoint: mean tumor weight, dose: 40.0 mg/kg/injection, schedule: Q07DX006 (ip), vehicle: saline", "value": "23 % of control"},
      {"measurement": "T/C", "setting": "endpoint: mean tumor weight, dose: 40.0 mg/kg/injection, schedule: Q07DX007 (ip), vehicle: saline", "value": "71 % of control"},
      {"measurement": "T/C", "setting": "endpoint: mean tumor weight, dose: 60.0 mg/kg/injection, schedule: Q07DX006 (ip), vehicle: saline", "value": "2 % of control"},
      {"measurement": "T/C", "setting": "endpoint: mean tumor weight, dose: 80.0 mg/kg/injection, schedule: Q07DX007 (ip), vehicle: saline", "value": "49 % of control"},
      {"measurement": "T/C", "setting": "endpoint: median tumor weight (est.), dose: 6.25 mg/kg/injection, schedule: Q07DX005 (ip), vehicle: saline", "value": "58 % of control"},
      {"measurement": "T/C", "setting": "endpoint: median tumor weight (est.), dose: 12.5 mg/kg/injection, schedule: Q07DX005 (ip), vehicle: saline", "value": "59 % of control"},
      {"measurement": "T/C", "setting": "endpoint: median tumor weight (est.), dose: 25.0 mg/kg/injection, schedule: Q07DX005 (ip), vehicle: saline", "value": "41 % of control"}
    ]},
    {"smiles": "CCCCCC(=O)O[C@]1(C(C)=O)CC[C@H]2[C@@H]3CCC4=CC(=O)CC[C@]4(C)[C@H]3CC[C@@]21C", "values": [
      {"measurement": "T/C", "setting": "[1]", "value": "95 % of control"},
      {"measurement": "T/C", "setting": "endpoint: median tumor weight (est.), dose: 25.0 mg/kg/injection, schedule: Q07DX005 (ip), vehicle: Klucel (hydroxypropylcellulose) (HPC)", "value": "90 % of control"},
      {"measurement": "T/C", "setting": "endpoint: median tumor weight (est.), dose: 50.0 mg/kg/injection, schedule: Q07DX005 (ip), vehicle: Klucel (hydroxypropylcellulose) (HPC)", "value": "101 % of control"},
      {"measurement": "T/C", "setting": "endpoint: median tumor weight (est.), dose: 100.0 mg/kg/injection, schedule: Q07DX005 (ip), vehicle: Klucel (hydroxypropylcellulose) (HPC)", "value": "92 % of control"},
      {"measurement": "T/C", "setting": "[2]", "value": "49 % of control"},
      {"measurement": "T/C", "setting": "[3]", "value": "77 % of control"}
    ]},
    {"smiles": "CCCCC(C)(C(=O)OCC)C(=O)OCC", "values": [
      {"measurement": "T/C", "setting": "[1]", "value": "94 % of control"},
      {"measurement": "T/C", "setting": "[2]", "value": "110 % of control"},
      {"measurement": "T/C", "setting": "[3]", "value": "212 % of control"}
    ]},
    {"smiles": "CS(=O)(=O)Nc1ccc(C(=O)CCN2CCCCCC2)cc1", "values": [
      {"measurement": "T/C", "setting": "endpoint: median tumor weight change, dose: 125.0 mg/kg/injection, schedule: Q01DX001 (ip), vehicle: suspension in saline", "value": "157 % of control"},
      {"measurement": "T/C", "setting": "endpoint: median tumor weight change, dose: 250.0 mg/kg/injection, schedule: Q01DX001 (ip), vehicle: suspension in saline", "value": "166 % of control"},
      {"measurement": "T/C", "setting": "endpoint: median tumor weight change, dose: 500.0 mg/kg/injection, schedule: Q01DX001 (ip), vehicle: suspension in saline", "value": "92 % of control"}
    ]},
    {"smiles": "CC1=C(C)C(=O)O[C@@H]([C@](C)(O)[C@]2(O)CC[C@@]3(O)[C@@H]4C[C@H]5O[C@]56CC=CC(=O)[C@]6(C)[C@H]4CC[C@]23C)C1", "values": [
      {"measurement": "T/C", "setting": "endpoint: median tumor weight change, dose: 25.0 mg/kg/injection, schedule: Q01DX001 (ip), vehicle: saline", "value": "91 % of control"},
      {"measurement": "T/C", "setting": "endpoint: median tumor weight change, dose: 50.0 mg/kg/injection, schedule: Q01DX001 (ip), vehicle: saline", "value": "98 % of control"},
      {"measurement": "T/C", "setting": "endpoint: median tumor weight change, dose: 200.0 mg/kg/injection, schedule: Q01DX001 (ip), vehicle: saline", "value": "69 % of control"},
      {"measurement": "T/C", "setting": "endpoint: median tumor weight change, dose: 400.0 mg/kg/injection, schedule: Q01DX001 (ip), vehicle: saline", "value": "82 % of control"}
    ]},
    {"smiles": "CSc1cc(=O)n2c3ccccc3c3ccnc1c32", "values": [
      {"measurement": "T/C", "setting": "endpoint: median tumor weight (est.), dose: 2.5 mg/kg/injection, schedule: Q07DX005 (ip), vehicle: saline with Tween-80", "value": "77 % of control"},
      {"measurement": "T/C", "setting": "endpoint: median tumor weight (est.), dose: 5.0 mg/kg/injection, schedule: Q07DX005 (ip), vehicle: saline with Tween-80", "value": "74 % of control"},
      {"measurement": "T/C", "setting": "endpoint: median tumor weight (est.), dose: 10.0 mg/kg/injection, schedule: Q07DX005 (ip), vehicle: saline with Tween-80", "value": "74 % of control"},
      {"measurement": "T/C", "setting": "endpoint: median tumor weight (est.), dose: 20.0 mg/kg/injection, schedule: Q07DX005 (ip), vehicle: saline with Tween-80", "value": "65 % of control"},
      {"measurement": "T/C", "setting": "endpoint: median tumor weight (est.), dose: 40.0 mg/kg/injection, schedule: Q07DX005 (ip), vehicle: saline with Tween-80", "value": "119 % of control"},
      {"measurement": "T/C", "setting": "endpoint: median tumor weight (est.), dose: 80.0 mg/kg/injection, schedule: Q07DX005 (ip), vehicle: saline with Tween-80", "value": "59 % of control"}
    ]},
    {"smiles": "COC1=CC(=O)C(OC)=C(OC)C1=O", "values": [
      {"measurement": "T/C", "setting": "endpoint: median tumor weight (est.), dose: 6.25 mg/kg/injection, schedule: Q07DX005 (ip), vehicle: saline with Tween-80", "value": "63 % of control"},
      {"measurement": "T/C", "setting": "endpoint: median tumor weight (est.), dose: 12.5 mg/kg/injection, schedule: Q07DX005 (ip), vehicle: saline with Tween-80", "value": "106 % of control"},
      {"measurement": "T/C", "setting": "endpoint: median tumor weight (est.), dose: 25.0 mg/kg/injection, schedule: Q07DX005 (ip), vehicle: saline with Tween-80", "value": "90 % of control"},
      {"measurement": "T/C", "setting": "endpoint: median tumor weight (est.), dose: 50.0 mg/kg/injection, schedule: Q07DX005 (ip), vehicle: saline with Tween-80", "value": "96 % of control"},
      {"measurement": "T/C", "setting": "endpoint: median tumor weight (est.), dose: 100.0 mg/kg/injection, schedule: Q07DX005 (ip), vehicle: saline with Tween-80", "value": "74 % of control"}
    ]},
    {"smiles": "CC(=O)CC(c1ccccc1)c1c(O)c2ccccc2oc1=O", "note": "(stereo unspecified)", "values": [
      {"measurement": "T/C", "setting": "endpoint: median tumor weight change, dose: 0.01 mg/kg/injection, schedule: Q01DX001 (ip), vehicle: Klucel (hydroxypropylcellulose) (HPC)", "value": "183 % of control"},
      {"measurement": "T/C", "setting": "endpoint: median tumor weight change, dose: 0.02 mg/kg/injection, schedule: Q01DX001 (ip), vehicle: Klucel (hydroxypropylcellulose) (HPC)", "value": "157 % of control"},
      {"measurement": "T/C", "setting": "endpoint: median tumor weight change, dose: 0.05 mg/kg/injection, schedule: Q01DX001 (ip), vehicle: Klucel (hydroxypropylcellulose) (HPC)", "value": "196 % of control"},
      {"measurement": "T/C", "setting": "endpoint: median tumor weight change, dose: 0.1 mg/kg/injection, schedule: Q01DX001 (ip), vehicle: Klucel (hydroxypropylcellulose) (HPC)", "value": "203 % of control"},
      {"measurement": "T/C", "setting": "endpoint: median tumor weight change, dose: 0.2 mg/kg/injection, schedule: Q01DX001 (ip), vehicle: Klucel (hydroxypropylcellulose) (HPC)", "value": "192 % of control"}
    ]}
  ]
}
